Source: patent publication US20070004621A1, “Bex4 nucleic acids, polypeptides, and method of using” (priority 2003, published 2007)

Assays:
[1] = test system: Bex4 expression in Xa cell line; test: Bex4 expression and site 1 methylation in Xa hybrid cell line after inhibitor treatment; format: cell-based; conditions: for Bex4 expression / transcription: Xa (active X) hybrid cell line, various concentrations
Description: To determine if methylation of site 1 controlled Bex4 expression in the Xa cell line, cells were treated with various concentrations of the methyltransferase inhibitor 5-aza-2′ deoxycytidine (5-aza-dC). […] Epigenetic inactivation Bex4 in Xa was specific, since two genes flanking Bex4, namely Bex3/NADE and pp21 homolog, were expressed in Xa.

[2] = test system: Bex4 transcription in OV207; test: Bex4 transcription in OV207 cells after 5-aza-dC treatment; format: cell-based, human; conditions: OV207 cell line
Description: Methylation at site 1 in these samples was associated with loss of Bex4 expression, as evidenced by semi-quantitative RT-PCR.

[3] = test system: Bex4 transcription in OV202 cells; test: Bex4 transcription (RT-PCR) in OV202 cells after 5-aza-2′-deoxycytidine treatment; format: cell-based, human; conditions: OV202 cells, 0, 1, 5, or 10 μM, 48 hours, PCR with Bex4 specific primers
Description: To determine if hypermethylation is responsible for inactivation of Bex4 expression in OvCa cell lines, OV202 cells were treated with 0, 1, 5, or 10 μM 5-aza-2′-deoxycytidine (a DNA methyltransferase inhibitor) for 48 hours. RNA was extracted, reverse transcribed, and analyzed by PCR using Bex4 specific primers.

Structure (SMILES) | methylation of site 1 (bisulfite-modified DNA) ([1]; 5-aza-dC treated Xa cells) | Bex4 expression / transcription [1] | Bex4 transcription [2] | transcription of Bex4 [3]
Nc1ncn([C@H]2C[C@H](O)[C@@H](CO)O2)c(=O)n1 [5-aza-2′-deoxycytidine] | demethylation of site 1 | dose-dependent increase | induced Bex4 transcription | dose dependant increase
CC(/C=C/C(=O)NO)=C\[C@@H](C)C(=O)c1ccc(N(C)C)cc1 [Trichostatin A, trichostatin A] |  | did not affect |  | 
